This data set is described as follows: Measurement of gelation temperature by DSC and rheology (Example 1). It counts as physicochemical. Particulars: addition of 0.5% 5-FU to gel P407/P188/Alginate (20/2/1) (FIG. 2). The protocol: The gelation temperature (Tgel) was determined by Differential Scanning calorimetry (DSC) and rheology.
By DSC: between 20-35 mg of the solution were sealed in aluminium pans and placed into the DSC instrument (DSC 1, Mettler Toledo). An empty aluminium pan (size: 40 μL) served as a reference sample. The instrument was equilibrated at 5° C. for 7 min prior to initiation of the scans. The sample was then heated to 40° C. at a heating rate of 5° C./min. Data analysis was performed with the software preinstalled in the instrument (STARe Software). The gelation temperature was determined as the small enthalpy change which was visible around at 10-12° C. above the big endothermic peak caused by micellization of the poloxamers, as already done in other studies (Nie et al, Int. J. Nanomedicine. 6 (2011) 151-166. doi:10.2147/IJN.S15057).
By rheology: a deformation was applied and varied between 0.01 to 100% at a fixed frequency of 1 Hz with a cone/plan mobile with an angle of 1°, a diameter of 50 mm and with a gap of 0.1 mm. The sample was left at room temperature for 1 hour, then approximately 750 μL was loaded on the pelletier plan which is submitted to a temperature increase. The viscoelastic moduli G′ and G″ are measured. The gelation temperature corresponds to the curve intersections.

Structures are written as SMILES.

On to `O=c1[nH]cc(F)c(=O)[nH]1` [Composition 5-FU, 5-Fluorouracil], for which the “increase of the gelation temperature” value amounted to 2 °C.

(Values after patent US11291630B2, “Gelling compositions for treating malignant tumours and/or preventing tumour recurrence” (Centre National de la Recherche Scientifique (CNRS), priority 2015, dated 2022).)
